What was measured:
HepG2 cells [1] = experiment: Cell metastasis (Transwell, Calcein AM fluorescence), HepG2; type: cell-based; settings: 10 μM, 48 or 72 hrs
Experimental: (§1) The HepG2 and Hep3B cells were separately cultured in an insert of the Transwell plate, then added with 10 μM Amlodipine and cultured for 48 or 72 hrs. The insert was placed in a serum-free DMEM medium containing […] Calcien AM. Fluorescent staining was carried out in a culture environment at 37° C. After about 45-60 min, the cells were scraped off with 0.05% Trypsin-EDTA, and the fluorescence intensity at a wavelength of 490 to 520 nm was measured.

[2] = system: patients having cervical cancer; experiment: NHIRD statistical analysis of death/survival with vs without Amlodipine, cervical cancer; type: in vivo, human
Hep3B cells = experiment: Cell metastasis (Transwell, Calcein AM fluorescence), Hep3B; type: cell-based; settings: 10 μM, 48 or 72 hrs
Experimental: as §1

HepG2 cells [3] = experiment: Cell viability (WST-1 72 hrs; PI flow cytometry 48 hrs), HepG2; type: cell-based
Experimental: Two liver cancer cell lines HepG2 and Hep3B were cultured. The medium used for the culture of the cells was DMEM medium containing 10% fetal bovine serum, 10,000 U/ml penicillin and 10,000 μg/ml streptomycin. The culture occurred in an environment at 37° C. with 5% CO2, and the medium was changed every 2-3 days during the culture. After the cells were cultured to about 70% confluence, they were treated with various concentrations of Amlodipine: 0, 1.5625, 3.125, 6.25, 12.5, 25, and 50 μM for various times: 48, and 72 hrs. After the experiment, the viability of each liver cancer cell line was observed and the cell viability and cell cycle were analyzed. The HepG2 and Hep3B cells treated with various concentrations of Amlodipine for 72 hrs were added to WST-1 reagent. After 330 minutes of reaction, the absorbance at a wavelength of 420-480 nm was measured. The HepG2 and Hep3B cells treated with various concentrations of Amlodipine for 48 hrs were scraped off with 0.05% Trypsin-EDTA, and then added to 2 mg/ml PI solution. The cell viability was analyzed by flow cytometry.

cancer patients = experiment: NHIRD statistical analysis, cancer patients overall; type: in vivo, human
Experimental: In this example, statistical analysis was performed on the statistics of the effects of Amlodipine in the treatment of cancers, using data from the National Health Insurance Research Database (NHIRD) covering detailed healthcare data for the population in Taiwan. Then, the diagnostic data at the time of admission in the database and the database of patients with registered major injuries were used, and statistical analysis was performed using data from patients with gastric cancer.
The dose of Amlodipine used in Example 1 was at least 120 mg/30 days. Therefore, in order to obtain the minimum effective dose, the survival rate of patients treated with Amlodipine for days in 90 days after cancer diagnosis was further statistically analyzed.

liver cancer cells HepG2 = experiment: Cell cycle analysis by flow cytometry, HepG2; type: cell-based
Experimental: Two liver cancer cell lines HepG2 and Hep3B were cultured. The medium used for the culture of the cells was DMEM medium containing 10% fetal bovine serum, 10,000 U/ml penicillin and 10,000 μg/ml streptomycin. The culture occurred in an environment at 37° C. with 5% CO2, and the medium was changed every 2-3 days during the culture. After the cells were cultured to about 70% confluence, they were treated with various concentrations of Amlodipine: 0, 1.5625, 3.125, 6.25, 12.5, 25, and 50 μM for various times: 48, and 72 hrs. After the experiment, the viability of each liver cancer cell line was observed and the cell viability and cell cycle were analyzed. The cell cycle of each liver cancer cell line treated under different conditions was analyzed by flow cytometry. […] Still further, each liver cancer cell line was treated with Amlodipine at a concentration of 12.5 μM for 0, 12, 24, 36 and 48 hrs, and the cell cycle was analyzed by flow cytometry.

[4] = 12.5 μM Amlodipine, treatment time 12 hr
[5] = 12.5 μM Amlodipine, treatment time 24 hr
[6] = 12.5 μM Amlodipine, treatment time 36 hr
[7] = 12.5 μM Amlodipine, treatment time 48 hr

Structure (SMILES): CCOC(=O)C1=C(COCCN)NC(C)=C(C(=O)OC)C1c1ccccc1Cl (centres unmarked) [Amlodipine]
- fluorescence intensity (cell metastasis) vs cells not treated with Amlodipine (HepG2 cells [1]): lower
- Crude HR HRs (95% C.I.) ([2]; 24/30: Amlodipine at least 24 days within 30 days after cancer diagnosis): 0.50 (0.46-0.55)
- Crude HR HRs (95% C.I.) ([2]; 48/60: Amlodipine at least 48 days within 60 days after cancer diagnosis): 0.51 (0.46-0.56)
- Crude HR HRs (95% C.I.) ([2]; 72/90: Amlodipine at least 72 days within 90 days after cancer diagnosis): 0.46 (0.42-0.51)
- Crude HR HRs (95% C.I.) ([2]; Amlodipine for 20 days within 90 days after diagnosis): 1.00 (0.89-1.11)
- fluorescence intensity (cell metastasis) vs cells not treated with Amlodipine (Hep3B cells): lower
- Amlodipine concentration at which the best inhibitory effect on the growth of liver cancer cells is achieved (HepG2 cells [3]): greater than or equal to 12.5 μM
- cell viability of liver cancer cells treated with Amlodipine (HepG2 cells [3]; 1.5625-50 μM, 48 and 72 hrs, FIGS. 9, 11, 12): decreased
- mortality of cancer patients (in words) (cancer patients; Table 1, at least 120 mg/30 days): effectively reduce the mortality of cancer patients
- survival rate of cancer patients (in words) (cancer patients; Table 2, FIGS. 1-8, 100 mg in 90 days, follow-up 3 years, vs no Amlodipine): increase the survival rate of cancer patients
- Proportion of cell distribution in cell cycle (%) M1: (liver cancer cells HepG2; 1.5625 μM Amlodipine, 48 hrs): 1.58%
- Proportion of cell distribution in cell cycle (%) M2: (liver cancer cells HepG2; 1.5625 μM Amlodipine, 48 hrs): 70.28%
- Proportion of cell distribution in cell cycle (%) M3: (liver cancer cells HepG2; 1.5625 μM Amlodipine, 48 hrs): 8.89%
- Proportion of cell distribution in cell cycle (%) M4: (liver cancer cells HepG2; 1.5625 μM Amlodipine, 48 hrs): 19.34%
- Proportion of cell distribution in cell cycle (%) M1: (liver cancer cells HepG2; 3.125 μM Amlodipine, 48 hrs): 1.36%
- Proportion of cell distribution in cell cycle (%) M2: (liver cancer cells HepG2; 3.125 μM Amlodipine, 48 hrs): 69.60%
- Proportion of cell distribution in cell cycle (%) M3: (liver cancer cells HepG2; 3.125 μM Amlodipine, 48 hrs): 8.91%
- Proportion of cell distribution in cell cycle (%) M4: (liver cancer cells HepG2; 3.125 μM Amlodipine, 48 hrs): 20.23%
- Proportion of cell distribution in cell cycle (%) M1: (liver cancer cells HepG2; 6.25 μM Amlodipine, 48 hrs): 1.91%
- Proportion of cell distribution in cell cycle (%) M2: (liver cancer cells HepG2; 6.25 μM Amlodipine, 48 hrs): 66.92%
- Proportion of cell distribution in cell cycle (%) M3: (liver cancer cells HepG2; 6.25 μM Amlodipine, 48 hrs): 10.28%
- Proportion of cell distribution in cell cycle (%) M4: (liver cancer cells HepG2; 6.25 μM Amlodipine, 48 hrs): 21.01%
- Proportion of cell distribution in cell cycle (%) M1: (liver cancer cells HepG2; 12.5 μM Amlodipine, 48 hrs): 81.27%
- Proportion of cell distribution in cell cycle (%) M2: (liver cancer cells HepG2; 12.5 μM Amlodipine, 48 hrs): 12.49%
- Proportion of cell distribution in cell cycle (%) M3: (liver cancer cells HepG2; 12.5 μM Amlodipine, 48 hrs): 3.31%
- Proportion of cell distribution in cell cycle (%) M4: (liver cancer cells HepG2; 12.5 μM Amlodipine, 48 hrs): 2.95%
- Proportion of cell distribution in cell cycle (%) M1: (liver cancer cells HepG2; [4]): 5.01%
- Proportion of cell distribution in cell cycle (%) M2: (liver cancer cells HepG2; [4]): 76.16%
- Proportion of cell distribution in cell cycle (%) M3: (liver cancer cells HepG2; [4]): 6.10%
- Proportion of cell distribution in cell cycle (%) M4: (liver cancer cells HepG2; [4]): 12.87%
- Proportion of cell distribution in cell cycle (%) M1: (liver cancer cells HepG2; [5]): 16.20%
- Proportion of cell distribution in cell cycle (%) M2: (liver cancer cells HepG2; [5]): 65.01%
- Proportion of cell distribution in cell cycle (%) M3: (liver cancer cells HepG2; [5]): 6.24%
- Proportion of cell distribution in cell cycle (%) M4: (liver cancer cells HepG2; [5]): 12.69%
- Proportion of cell distribution in cell cycle (%) M1: (liver cancer cells HepG2; [6]): 65.46%
- Proportion of cell distribution in cell cycle (%) M2: (liver cancer cells HepG2; [6]): 22.64%
- Proportion of cell distribution in cell cycle (%) M3: (liver cancer cells HepG2; [6]): 4.81%
- Proportion of cell distribution in cell cycle (%) M4: (liver cancer cells HepG2; [6]): 7.22%
- Proportion of cell distribution in cell cycle (%) M1: (liver cancer cells HepG2; [7]): 83.26%
- Proportion of cell distribution in cell cycle (%) M2: (liver cancer cells HepG2; [7]): 11.13%
- Proportion of cell distribution in cell cycle (%) M3: (liver cancer cells HepG2; [7]): 1.73%
- Proportion of cell distribution in cell cycle (%) M4: (liver cancer cells HepG2; [7]): 3.93%
- cell division (cell cycle, in words) (liver cancer cells HepG2; 12.5 μM or more, 48 hrs): most cells were unable to undergo cell division
- Proportion of cell distribution in cell cycle (%) M1: (liver cancer cells HepG2; 25 μM Amlodipine, 48 hrs): 99.75%
- Proportion of cell distribution in cell cycle (%) M2: (liver cancer cells HepG2; 25 μM Amlodipine, 48 hrs): 0.22%
- Proportion of cell distribution in cell cycle (%) M3: (liver cancer cells HepG2; 25 μM Amlodipine, 48 hrs): 0.00%
- Proportion of cell distribution in cell cycle (%) M4: (liver cancer cells HepG2; 25 μM Amlodipine, 48 hrs): 0.94%
